Measured values published in paper PMC11219871, “Epigenetic-based differentiation therapy for Acute Myeloid Leukemia” (Nature Communications, 2024).
Values joined by “and” are separate entries in the source; they are usually repeats but may differ in a detail not shown here. Equal entries are not always repeated.

Assays:
HDAC2 = HDAC2 (Homo sapiens, UniProt Q92769); assay: HDAC enzymatic assay, fluorescence-labeled substrate; type: biochemical
HDAC3 = HDAC3 (Homo sapiens, UniProt O15379); assay: as above; type: biochemical; conditions: 10 µM, source data of Fig. 1B
Chain of HDAC3 (O15379 whole entry): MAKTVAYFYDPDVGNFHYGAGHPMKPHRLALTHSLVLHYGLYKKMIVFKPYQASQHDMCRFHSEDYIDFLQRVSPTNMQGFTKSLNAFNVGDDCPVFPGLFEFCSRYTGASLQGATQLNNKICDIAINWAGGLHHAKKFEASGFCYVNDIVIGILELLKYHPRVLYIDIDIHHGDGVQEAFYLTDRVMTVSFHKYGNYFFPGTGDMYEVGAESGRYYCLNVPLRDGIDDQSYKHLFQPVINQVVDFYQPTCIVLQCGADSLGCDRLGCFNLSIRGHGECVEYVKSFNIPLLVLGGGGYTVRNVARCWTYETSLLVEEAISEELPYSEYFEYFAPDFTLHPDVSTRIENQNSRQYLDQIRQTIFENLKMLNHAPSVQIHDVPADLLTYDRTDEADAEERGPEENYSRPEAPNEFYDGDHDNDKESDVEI
Chain of HDAC3 (Q9Y618 395-489 partner limits assumed): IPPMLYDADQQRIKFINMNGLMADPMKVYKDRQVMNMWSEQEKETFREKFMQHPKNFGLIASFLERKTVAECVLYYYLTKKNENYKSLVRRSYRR

HDAC4 = target: T1, HDAC4 (Homo sapiens, UniProt P56524); assay: HDAC assay (Eurofins); type: biochemical
T1 construct: purchased Eurofins (contracted assay service)
T1 sequence (P56524 whole entry): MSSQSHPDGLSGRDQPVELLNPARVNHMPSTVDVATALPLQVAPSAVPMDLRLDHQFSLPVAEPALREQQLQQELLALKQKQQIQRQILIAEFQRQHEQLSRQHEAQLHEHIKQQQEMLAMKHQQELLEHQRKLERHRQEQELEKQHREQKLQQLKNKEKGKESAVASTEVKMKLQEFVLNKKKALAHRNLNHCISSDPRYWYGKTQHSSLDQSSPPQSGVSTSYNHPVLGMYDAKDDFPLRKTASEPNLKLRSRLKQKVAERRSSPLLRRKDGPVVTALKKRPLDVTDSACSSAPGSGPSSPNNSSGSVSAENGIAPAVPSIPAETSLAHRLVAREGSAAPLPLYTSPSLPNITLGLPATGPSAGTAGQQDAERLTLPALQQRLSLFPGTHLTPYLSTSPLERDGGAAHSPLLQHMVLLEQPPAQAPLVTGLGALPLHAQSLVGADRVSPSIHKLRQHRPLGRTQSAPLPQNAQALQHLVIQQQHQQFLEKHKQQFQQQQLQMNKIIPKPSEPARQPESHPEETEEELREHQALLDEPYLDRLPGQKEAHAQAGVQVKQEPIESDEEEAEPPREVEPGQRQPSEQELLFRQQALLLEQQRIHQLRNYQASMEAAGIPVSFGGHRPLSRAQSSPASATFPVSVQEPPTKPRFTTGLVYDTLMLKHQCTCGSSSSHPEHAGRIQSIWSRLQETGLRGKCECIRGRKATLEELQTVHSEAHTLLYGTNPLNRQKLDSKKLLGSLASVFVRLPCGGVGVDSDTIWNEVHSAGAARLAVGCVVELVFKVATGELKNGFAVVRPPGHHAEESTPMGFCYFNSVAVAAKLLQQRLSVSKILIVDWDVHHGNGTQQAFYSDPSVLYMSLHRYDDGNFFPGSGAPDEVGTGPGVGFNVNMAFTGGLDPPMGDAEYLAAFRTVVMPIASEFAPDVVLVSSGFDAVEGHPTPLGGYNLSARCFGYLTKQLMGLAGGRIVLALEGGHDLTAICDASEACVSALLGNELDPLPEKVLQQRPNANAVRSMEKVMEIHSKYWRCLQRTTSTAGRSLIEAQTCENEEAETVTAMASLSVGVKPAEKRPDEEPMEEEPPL

HDAC5 = target: T2, HDAC5 (Homo sapiens, UniProt Q9UQL6); assay: HDAC assay (Eurofins); type: biochemical
T2 construct: purchased Eurofins (contracted assay service)
T2 sequence (Q9UQL6 whole entry): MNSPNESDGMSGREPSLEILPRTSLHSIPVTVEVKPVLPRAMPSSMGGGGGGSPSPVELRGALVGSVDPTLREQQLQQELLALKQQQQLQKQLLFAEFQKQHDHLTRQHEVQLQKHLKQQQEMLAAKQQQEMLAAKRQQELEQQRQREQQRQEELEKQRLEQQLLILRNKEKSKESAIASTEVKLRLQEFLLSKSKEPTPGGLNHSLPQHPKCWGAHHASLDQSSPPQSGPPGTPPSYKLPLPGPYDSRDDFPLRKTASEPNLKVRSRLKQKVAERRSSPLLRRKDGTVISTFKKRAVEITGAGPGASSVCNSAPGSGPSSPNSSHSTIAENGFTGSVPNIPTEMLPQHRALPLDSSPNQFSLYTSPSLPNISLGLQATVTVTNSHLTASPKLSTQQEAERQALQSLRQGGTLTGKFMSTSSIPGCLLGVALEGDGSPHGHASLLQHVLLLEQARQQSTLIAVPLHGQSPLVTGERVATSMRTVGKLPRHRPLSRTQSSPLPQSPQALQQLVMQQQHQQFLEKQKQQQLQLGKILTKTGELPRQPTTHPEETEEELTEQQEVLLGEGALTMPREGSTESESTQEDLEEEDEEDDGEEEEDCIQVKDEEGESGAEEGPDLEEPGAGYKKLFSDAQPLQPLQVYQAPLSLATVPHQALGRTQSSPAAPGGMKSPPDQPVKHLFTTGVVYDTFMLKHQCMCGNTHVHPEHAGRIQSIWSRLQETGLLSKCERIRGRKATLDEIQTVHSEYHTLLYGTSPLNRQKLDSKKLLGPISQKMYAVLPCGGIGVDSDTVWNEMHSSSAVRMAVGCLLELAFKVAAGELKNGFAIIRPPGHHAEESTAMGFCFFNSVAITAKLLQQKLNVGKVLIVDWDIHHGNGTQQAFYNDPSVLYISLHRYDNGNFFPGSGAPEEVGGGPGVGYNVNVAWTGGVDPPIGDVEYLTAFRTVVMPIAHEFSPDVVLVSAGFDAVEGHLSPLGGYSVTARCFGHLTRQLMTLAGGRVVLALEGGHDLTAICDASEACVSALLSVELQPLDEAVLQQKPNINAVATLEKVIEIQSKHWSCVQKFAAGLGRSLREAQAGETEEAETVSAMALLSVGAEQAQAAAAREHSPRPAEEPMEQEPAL

CACO-2 permeability = type: in vitro ADME; conditions: human
Description: This study was conducted at Wuxi (http://www.wuxi.com/). Caco-2 cells (ATCC) were seeded onto polyethylene membranes in 96-well BD insert plates at 1 × 10^5 cells/cm^2, and the medium was changed every 4 days until the 21st to 28th day for confluent cell monolayer formation. Test compounds were diluted with transport buffer (HBSS with 10 mM HEPES at pH 7.4 ± 0.05) to a concentration of 2 µM (final DMSO concentration adjusted to <1%) and tested bi-directionally to investigate P-glycoprotein-mediated efflux in duplicate. Controls: digoxin (10 μM, bi-directionally), nanodolol and metoprolol (2 μM, apical, A, to basolateral, B). The permeation was assessed over a 120-minute incubation at 37 °C ± 1 °C and 5% CO2 at saturated humidity without shaking. Samples were mixed with acetonitrile containing internal standard and centrifuged at 1520 g for 10 min. Then, 100-μL aliquots of supernatant solutions were diluted with 100 μL of pure water. Concentrations of test and control compounds in starting solution, donor solution, and receiver solution were quantified by LC-MS/MS using a peak area ratio of analyte to internal standard. Permeation of lucifer yellow through the monolayer was measured to evaluate the cellular integrity. The results are the average of two biological replicates.

Cytotoxicity (LC50) = type: cell-based; conditions: human, PBMCs from healthy donors, 72-h exposure
Rag2-/-γc-/- mice = assay: Toxicity assay: hematological and liver parameters, liver histology; type: in vivo, mouse; conditions: for ALT (Counts (U/L)) / AST (Counts (U/L)) / Bilirubin (Counts (mg/dl)) / HDL (Counts (mmol/l)) / LCLC3 (Counts (mmol/l)) / UREA (Counts (mg/dl)) / Hematocrit (Counts (%)) / Hemoglobin (Counts (g/dl)) / PLT (Counts (K/O)) / RBC (Counts (K/O)) / WBC (Counts (K/O)): healthy Rag2-/-γc-/- mice, individual mice, 10 mg/kg; for ALT (Counts (U/L)) / AST (Counts (U/L)) / Bilirubin (Counts (mg/dl)) / HDL (Counts (mmol/l)) / LCLC3 (Counts (mmol/l)) / UREA (Counts (mg/dl)): 10 mg/kg i.p. daily for 3 weeks then 7-day washout; for Hematocrit (Counts (%)) / Hemoglobin (Counts (g/dl)) / PLT (Counts (K/O)) / RBC (Counts (K/O)) / WBC (Counts (K/O)): 10 mg/kg i.p. daily for 3 weeks
Description: After treating Rag2^−/−γc^−/− mice with i.p. […] Hematological and liver parameters were measured.
Hematological parameters, including white blood cells, red blood cells, platelet count, hemoglobin and hematocrit, were measured on a Hemavet Hematology Analyzer (Drew Scientific). Liver enzymes (albumin, alkaline phosphatase, aspartate transaminase, alanine transaminase), cholesterol, bilirubin, urea and bile acid levels were analyzed from mice serum using a C311 Cobas Analyzer (Roche Diagnostics).
Mice livers were fixed in paraformaldehyde at 4% for 6–8 h, washed twice with saline solution and stored in 70% ethanol. Samples were included in paraffin, and 3-µm serial sections were cut, deparaffinated, and stained with hematoxylin–eosin.

[1] = test system: MOLM-13 i.v. in BALB/cA Rag2-/-γc-/- mice; assay: Intravenous xenograft model (survival, CD11b in blood, body weight); type: in vivo, mouse; conditions: for Body weight: intravenous MOLM-13 AML mouse model, individual mice
Description: (§1) The human AML MV4-11 and MOLM-13 xenograft mice models were generated by intravenous (i.v.) injection of 10 × 10^6 (MV4-11) or 1 × 10^4 (MOLM-13) cells diluted in 100 µL of saline solution in the tail vein of a 6-8-week-old female BALB/cA Rag2^−/−γc^−/− mice (n = 10). Treatment started 7 or 1 day after MV4-11 or MOLM-13 cells injection, respectively. MV4-11 and MOLM-13 mice were treated with i.p. 10 mg/kg of CM-444 and CM-1758 during 5 consecutive days followed by 2 resting days for 7 and 2 weeks, respectively. The control group received only 80% saline solution, 10% DMSO and 10% Tween 20 (diluents of CM-444 and CM-1758). The mice weight was controlled and remained stable during the treatment. Statistical results were calculated using the statistical software Medcalc. CD11b levels in blood samples from an intravenous MV4-11 mice model were measured by flow cytometry, as described above.

[2] = test system: MV4-11 i.v. in BALB/cA Rag2-/-γc-/- mice; assay: as above; type: in vivo, mouse; conditions: for body weight of mice: intravenous MV4-11 AML mouse model, individual mice
Description: as §1

Chain of HDAC2 (Q92769 whole entry): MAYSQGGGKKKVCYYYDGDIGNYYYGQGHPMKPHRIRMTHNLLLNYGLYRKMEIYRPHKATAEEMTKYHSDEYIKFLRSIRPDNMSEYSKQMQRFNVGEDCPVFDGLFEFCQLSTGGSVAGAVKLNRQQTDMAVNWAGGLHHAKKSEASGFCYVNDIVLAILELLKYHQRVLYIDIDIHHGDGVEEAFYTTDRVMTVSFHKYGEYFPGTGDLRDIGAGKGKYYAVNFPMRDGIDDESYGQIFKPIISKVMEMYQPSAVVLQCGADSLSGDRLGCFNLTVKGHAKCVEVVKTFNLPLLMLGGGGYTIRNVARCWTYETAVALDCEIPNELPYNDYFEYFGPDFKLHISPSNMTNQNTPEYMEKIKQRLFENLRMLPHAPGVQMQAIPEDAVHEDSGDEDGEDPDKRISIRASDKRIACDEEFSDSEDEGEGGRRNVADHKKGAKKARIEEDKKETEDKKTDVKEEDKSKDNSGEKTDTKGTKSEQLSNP

## COc1cc2nc(-c3ccc(C)o3)cc(NCC3CCN(c4ncc(C(=O)NO)cn4)CC3)c2cc1OC [CM-444, 2-[4-[[[6,7-dimethoxy-2-(5-methyl-2-furyl)-4-quinolyl]amino]methyl]-1-piperidyl]pyrimidine-5-carbohydroxamic acid]
HDAC2
  IC50: 51 nM
HDAC2; 10 µM, source data of Fig. 1B
  inhibition at 10 µM: 90%
HDAC3
  inhibition at 10 µM: 90%
HDAC4
  IC50: 62 nM
HDAC4; 10 µM
  inhibition at 10 µM: 96%
HDAC5
  IC50: 59 nM
HDAC5; 10 µM
  inhibition at 10 µM: 97%
CACO-2 permeability; Caco-2, pH 7.4
  efflux ratio at 120 min, 2 µM: > 1050
CACO-2 permeability; Caco-2, pH 7.4, A to B
  Papp A→B at 120 min, 2 µM: < 0.01 ×10⁻⁶ cm/s
Cytotoxicity (LC50)
  CC50 at 72 h: 1240 nM
Rag2-/-γc-/- mice; 10 mg/kg i.p. daily over 3 weeks, 1-week washout, Rag2-/-γc-/- mice
  tolerability: well tolerated
Rag2-/-γc-/- mice; Week 3
  ALT (Counts (U/L)): 11.5 U/L and 2 U/L and 10.5 U/L
  AST (Counts (U/L)): 32 U/L and 193 U/L and 55.5 U/L and 92 U/L
  Bilirubin (Counts (mg/dl)): 0 mg/dl (2×) and 0.15 mg/dl and 0.05 mg/dl
  HDL (Counts (mmol/l)): 1.85 mmol/l (2×) and 0.7 mmol/l and 2.75 mmol/l
  LCLC3 (Counts (mmol/l)): 0.15 mmol/l and 0.25 mmol/l (2×) and 0.1 mmol/l
  UREA (Counts (mg/dl)): 11.5 mg/dL and 19.7 mg/dL and 22.3 mg/dL and 21.65 mg/dL
  Hematocrit (Counts (%)): 43.7% and 49.1% and 49.8% and 51%
  Hemoglobin (Counts (g/dl)): 11.4 g/dL and 17.4 g/dL and 17.9 g/dL and 18.3 g/dL
  PLT (Counts (K/O)): 730 K/O and 1171 K/O and 1358 K/O and 1362 K/O
  RBC (Counts (K/O)): 8.57 K/O and 10.02 K/O and 10.36 K/O and 10.9 K/O
  WBC (Counts (K/O)): 1.16 K/O and 8.64 K/O and 6.22 K/O and 6.1 K/O
Rag2-/-γc-/- mice; Week 4
  ALT (Counts (U/L)): 19.5 U/L and 11.7 U/L and 32.4 U/L and 21 U/L
  AST (Counts (U/L)): 128.4 U/L and 47.1 U/L and 73.2 U/L and 160.2 U/L
  Bilirubin (Counts (mg/dl)): 0.09 mg/dl (2×) and 0.06 mg/dl and 0.12 mg/dl
  HDL (Counts (mmol/l)): 2.61 mmol/l (2×) and 2.16 mmol/l and 2.58 mmol/l
  LCLC3 (Counts (mmol/l)): 0.3 mmol/l and 0.21 mmol/l (2×) and 0.24 mmol/l
  UREA (Counts (mg/dl)): 27.78 mg/dL and 27.48 mg/dL and 30.3 mg/dL and 24.12 mg/dL
Rag2-/-γc-/- mice; 7d Washout
  Hematocrit (Counts (%)): 52.1% and 56.9% and 53.3% and 53.1%
  Hemoglobin (Counts (g/dl)): 17.9 g/dL and 18 g/dL and 17.7 g/dL and 17.4 g/dL
  PLT (Counts (K/O)): 1470 K/O and 1489 K/O and 1608 K/O and 1482 K/O
  RBC (Counts (K/O)): 10.26 K/O and 10.79 K/O and 10.39 K/O and 10.19 K/O
  WBC (Counts (K/O)): 5.36 K/O and 7.2 K/O and 1.48 K/O and 3.02 K/O
Rag2-/-γc-/- mice; Week 1
  Hematocrit (Counts (%)): 47.7% and 44.8% and 42.1% and 46%
  Hemoglobin (Counts (g/dl)): 18 g/dL and 18.2 g/dL and 17.7 g/dL and 17.8 g/dL
  PLT (Counts (K/O)): 906 K/O and 830 K/O and 622 K/O and 877 K/O
  RBC (Counts (K/O)): 10.04 K/O and 9.45 K/O and 9.05 K/O and 9.73 K/O
  WBC (Counts (K/O)): 3.7 K/O and 3.24 K/O and 5.4 K/O and 2.32 K/O
Rag2-/-γc-/- mice; Week 2
  Hematocrit (Counts (%)): 50.2% and 53.9% and 53.4% and 41.4%
  Hemoglobin (Counts (g/dl)): 17.9 g/dL and 18.4 g/dL and 17.5 g/dL and 15.1 g/dL
  PLT (Counts (K/O)): 1887 K/O and 1805 K/O and 1778 K/O and 1467 K/O
  RBC (Counts (K/O)): 10.43 K/O and 10.72 K/O and 10.28 K/O and 8.62 K/O
  WBC (Counts (K/O)): 5.84 K/O and 4.8 K/O and 3.6 K/O and 7.26 K/O
[1]; MOLM-13 i.v., 10 mg/kg i.p., 5 days on/2 off, 2 weeks
  overall survival (OS): not having observed an increase in OS
[1]; day 4
  Body weight: 22.8 and 24 (2×) and 25 and 23.7 and 22.6 (2×) and 23.6 and 23 and 25.3
[1]; day 6, in g (unit assumed)
  Body weight: 23.1 and 23.8 and 23.5 and 25 and 24.1 and 23.2 and 23 and 22.6 and 22 and 26.2
[1]; day 8
  Body weight: 22 (2×) and 23.1 and 23.6 and 24.1 and 23.2 and 22.9 and 22.7 and 22.6 and 25.8
[1]; day 11
  Body weight: 21.7 and 22.4 and 23 and 24.4 and 22.3 and 22.8 and 22.2 (2×) and 21.4 and 24.5
[1]; day 13
  Body weight: 22.1 (2×) and 23 and 23.1 and 24 and 22.7 and 22.9 and 22.3 and 21.2 and 24.8
[2]; MV4-11 i.v., 10 mg/kg i.p.
  CD11b in blood samples: statistically significant increase in CD11b
[2]; MV4-11 i.v., 10 mg/kg i.p., 5 days on/2 off, 7 weeks
  overall survival (OS): increased overall survival
[2]; day 20
  body weight of mice: 26 (2×) and 24.2 and 24.3 and 23.2 and 24.5 (2×) and 25.1 and 24.8 and 27 and 25.7 and 24
[2]; day 23
  body weight of mice: 26.5 and 24.3 (3×) and 24.7 and 23.9 and 25.1 and 25.2 and 24.9 and 24.6 and 27.6 and 26.2
[2]; day 25
  body weight of mice: 26.4 and 24.4 and 24.5 and 23.9 and 24.8 (2×) and 25.1 (2×) and 23.7 and 27.9 and 26.1 and 24.2
[2]; day 28
  body weight of mice: 25.9 and 24.3 and 24.1 (2×) and 22 and 24.6 (2×) and 25.3 and 25.1 and 27.9 and 26.2 and 24.2
[2]; day 30
  body weight of mice: 26.4 and 24 (2×) and 23.8 and 20.4 and 24.3 and 25 and 24.7 and 24.2 and 27.6 and 25.5 and 24.5
[2]; day 31
  body weight of mice: 25.8 and 24.8 (2×) and 24.4 and 22.9 and 25.7 and 24.5 and 23.7 and 27.3 and 24.6 and 24.7
[2]; day 35
  body weight of mice: 26.1 (2×) and 23.9 and 23.7 and 24.1 and 25.9 and 24.3 and 24.7 and 26.6 and 25
[2]; day 37
  body weight of mice: 26.5 and 24.6 and 24.4 and 25 (3×) and 27.2 (2×) and 27.7 and 27
[2]; day 42
  body weight of mice: 25.9 and 24.4 and 22.5 and 24.3 (2×) and 27 and 25.2 and 26.9 and 27.3
[2]; mice engrafted intravenously with MV4-11 cells, individual mice (Fig 3E)
  CD11b levels in blood samples: 7.18% and 15.3% and 22.1% and 21.14% and 13% and 34.5% and 22% and 9.14% and 7.78%
[2]; mice engrafted with MV4-11 cells intravenously, individual mice (Fig 3D)
  Survival time (Kaplan-Meier, event = 1): 32 days and 46 days and 48 days and 51 days and 53 days and 54 days
